# Tests used:
# Assay in all cases: relative viability (nuclei count vs DMSO), 5 days (fraction); higher = more cells survive
# [1] = test system: NCI-H2126
# In short: (§1)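 A single step with final 0.05% Triton X-100, 1% formaldehyde and 1 ug/ml Hoechst fixed the cells and stained nuclei 5 days after treatment. Lung cancer cell lines in 1536-well plates had been treated by pin tool the day after seeding with one drug alone or a fixed anchor-drug dose plus five library-drug doses (not always all listed) in √10 steps, and nuclei were counted on 4× images. Relative viability is the ratio of nuclei in treated wells to nuclei in vehicle wells, taken as the median of duplicate plates.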
# [2] = test system: NCI-H322M
# In short: as §1
# [3] = test system: HOP-62
# In short: as §1
# [4] = test system: NCI-H1650
# In short: as §1
# [5] = test system: NCI-H2085
# In short: as §1
# [6] = test system: NCI-H358
# In short: as §1
# [7] = test system: NCI-H2023
# In short: as §1
# [8] = test system: NCI-H2342
# In short: as §1
# [9] = test system: SK-LU-1
# In short: as §1
# [10] = test system: EMC-BAC-2
# In short: as §1
# [11] = test system: NCI-H661
# In short: as §1
# [12] = test system: NCI-H1993
# In short: as §1
# [13] = test system: NCI-H1915
# In short: as §1
# [14] = test system: PC-14
# In short: as §1
# [15] = test system: BEN
# In short: as §1
# [16] = test system: NCI-H647
# In short: as §1
# [17] = test system: NCI-H2347
# In short: as §1
# [18] = test system: LCLC-97TM1
# In short: as §1
# [19] = test system: NCI-H2009
# In short: as §1
# [20] = test system: SW 1573
# In short: as §1
# [21] = test system: LXF-289
# In short: as §1
# [22] = test system: NCI-H727
# In short: as §1
# [23] = test system: H3255
# In short: as §1
compound,measurement,setting,value
C[C@@H]1CN(CC(=O)Nc2ccc3c(c2)Cc2cccc(-c4cc(=O)cc(N5CCOCC5)o4)c2S3)C[C@H](C)O1 + CC(=O)c1c(C)c2cnc(Nc3ccc(N4CCNCC4)cn3)nc2n(C2CCCC2)c1=O [Palbociclib] (partner 0.5 µM),relative viability,[1]; first compound 0.04 µM,0.384
same,relative viability,[1]; first compound 0.1265 µM,0.343
same,relative viability,[1]; first compound 0.4 µM,0.348
same,relative viability,[1]; first compound 4 µM,0.334
same,relative viability,[2]; first compound 0.04 µM,0.421
same,relative viability,[2]; first compound 0.1265 µM,0.475
same,relative viability,[2]; first compound 0.4 µM,0.506
same,relative viability,[2]; first compound 4 µM,0.522
same,relative viability,[3]; first compound 0.04 µM,0.398
same,relative viability,[3]; first compound 0.1265 µM,0.43
same,relative viability,[3]; first compound 0.4 µM,0.412
same,relative viability,[3]; first compound 4 µM,0.405
same,relative viability,[4]; first compound 0.04 µM,0.376
same,relative viability,[4]; first compound 0.1265 µM,0.397
same,relative viability,[4]; first compound 0.4 µM,0.285
same,relative viability,[4]; first compound 4 µM,0.262
same,relative viability,[5]; first compound 0.04 µM,0.476
same,relative viability,[5]; first compound 0.1265 µM,0.436
same,relative viability,[5]; first compound 0.4 µM,0.498
same,relative viability,[5]; first compound 4 µM,0.419
same,relative viability,[6]; first compound 0.04 µM,0.123
same,relative viability,[6]; first compound 0.1265 µM,0.132
same,relative viability,[6]; first compound 0.4 µM,0.12
same,relative viability,[6]; first compound 4 µM,0.127
same,relative viability,[7]; first compound 0.04 µM,0.426
same,relative viability,[7]; first compound 0.1265 µM,0.336
same,relative viability,[7]; first compound 0.4 µM,0.371
same,relative viability,[7]; first compound 4 µM,0.288
same,relative viability,[8]; first compound 0.04 µM,0.525
same,relative viability,[8]; first compound 0.1265 µM,0.556
same,relative viability,[8]; first compound 0.4 µM,0.496
same,relative viability,[8]; first compound 4 µM,0.455
same,relative viability,[9]; first compound 0.04 µM,0.434
same,relative viability,[9]; first compound 0.1265 µM,0.372
same,relative viability,[9]; first compound 0.4 µM,0.367
same,relative viability,[9]; first compound 4 µM,0.387
same,relative viability,[10]; first compound 0.04 µM,0.502
same,relative viability,[10]; first compound 0.1265 µM,0.529
same,relative viability,[10]; first compound 0.4 µM,0.502
same,relative viability,[10]; first compound 4 µM,0.545
same,relative viability,[11]; first compound 0.04 µM,0.404
same,relative viability,[11]; first compound 0.1265 µM,0.442
same,relative viability,[11]; first compound 0.4 µM,0.387
same,relative viability,[11]; first compound 4 µM,0.383
same,relative viability,[12]; first compound 0.04 µM,0.645
same,relative viability,[12]; first compound 0.1265 µM,0.729
same,relative viability,[12]; first compound 0.4 µM,0.438
same,relative viability,[12]; first compound 4 µM,0.662
same,relative viability,[13]; first compound 0.04 µM,0.517
same,relative viability,[13]; first compound 0.1265 µM,0.526
same,relative viability,[13]; first compound 0.4 µM,0.507
same,relative viability,[13]; first compound 4 µM,0.311
same,relative viability,[14]; first compound 0.04 µM,0.529
same,relative viability,[14]; first compound 0.1265 µM,0.506
same,relative viability,[14]; first compound 0.4 µM,0.568
same,relative viability,[14]; first compound 4 µM,0.423
same,relative viability,[15]; first compound 0.04 µM,0.513
same,relative viability,[15]; first compound 0.1265 µM,0.471
same,relative viability,[15]; first compound 0.4 µM,0.481
same,relative viability,[15]; first compound 4 µM,0.452
same,relative viability,[16]; first compound 0.04 µM,0.376
same,relative viability,[16]; first compound 0.1265 µM,0.336
same,relative viability,[16]; first compound 0.4 µM,0.444
same,relative viability,[16]; first compound 4 µM,0.273
same,relative viability,[17]; first compound 0.04 µM,0.377
same,relative viability,[17]; first compound 0.1265 µM,0.493
same,relative viability,[17]; first compound 0.4 µM,0.459
same,relative viability,[17]; first compound 4 µM,0.404
same,relative viability,[18]; first compound 0.1265 µM,0.25
same,relative viability,[18]; first compound 0.4 µM,0.206
same,relative viability,[18]; first compound 4 µM,0.246
same,relative viability,[19]; first compound 0.04 µM,0.216
same,relative viability,[19]; first compound 0.1265 µM,0.214
same,relative viability,[19]; first compound 0.4 µM,0.206
same,relative viability,[19]; first compound 4 µM,0.206
same,relative viability,[20]; first compound 0.04 µM,0.501
same,relative viability,[20]; first compound 0.1265 µM,0.337
same,relative viability,[20]; first compound 0.4 µM,0.393
same,relative viability,[20]; first compound 4 µM,0.264
same,relative viability,[21]; first compound 0.04 µM,0.616
same,relative viability,[21]; first compound 0.1265 µM,0.617
same,relative viability,[21]; first compound 0.4 µM,0.613
same,relative viability,[21]; first compound 4 µM,0.549
same,relative viability,[22]; first compound 0.04 µM,0.852
same,relative viability,[22]; first compound 0.1265 µM,0.596
same,relative viability,[22]; first compound 0.4 µM,0.679
same,relative viability,[22]; first compound 4 µM,0.675
same,relative viability,[23]; first compound 0.04 µM,0.276
same,relative viability,[23]; first compound 0.1265 µM,0.345
same,relative viability,[23]; first compound 0.4 µM,0.268
same,relative viability,[23]; first compound 4 µM,0.305

# Source: the supplement of paper PMC10307832
